Reference: patent US10065954B2, “Substituted imidazo[4,5-c]pyridines as SSAO inhibitors” (Proximagen Limited, priority 2014, dated 2018)
pIC50: −log10 of the molar value.

The compounds below were run against T1, purified recombinantly expressed human SSAO (Homo sapiens, UniProt Q16853) (assay: SSAO enzyme inhibition assay (benzylamine substrate; hydrogen peroxide/HRP-coupled or 14C-aldehyde detection)). Conditions: SSAO inhibitory activity; recombinant human SSAO, RT.
T1 construct: made in house
T1 sequence (Q16853 1-763): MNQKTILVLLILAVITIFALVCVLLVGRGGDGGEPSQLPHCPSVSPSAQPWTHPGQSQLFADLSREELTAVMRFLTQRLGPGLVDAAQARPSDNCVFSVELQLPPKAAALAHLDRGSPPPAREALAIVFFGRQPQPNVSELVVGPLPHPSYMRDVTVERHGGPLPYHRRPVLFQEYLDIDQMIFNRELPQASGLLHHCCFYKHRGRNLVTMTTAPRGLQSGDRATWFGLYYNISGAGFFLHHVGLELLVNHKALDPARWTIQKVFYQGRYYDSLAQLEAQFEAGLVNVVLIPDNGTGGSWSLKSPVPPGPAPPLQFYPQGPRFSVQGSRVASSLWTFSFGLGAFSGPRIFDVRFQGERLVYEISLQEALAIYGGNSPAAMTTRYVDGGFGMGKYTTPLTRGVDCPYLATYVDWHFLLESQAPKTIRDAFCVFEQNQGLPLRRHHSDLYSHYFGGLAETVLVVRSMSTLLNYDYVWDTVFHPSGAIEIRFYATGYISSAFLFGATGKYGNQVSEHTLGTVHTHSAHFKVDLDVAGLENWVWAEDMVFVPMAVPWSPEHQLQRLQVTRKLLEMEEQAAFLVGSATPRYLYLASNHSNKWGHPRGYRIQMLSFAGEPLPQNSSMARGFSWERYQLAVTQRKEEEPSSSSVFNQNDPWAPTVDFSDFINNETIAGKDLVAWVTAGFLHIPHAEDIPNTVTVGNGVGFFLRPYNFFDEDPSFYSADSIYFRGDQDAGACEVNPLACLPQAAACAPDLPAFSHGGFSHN
Assay type: biochemical
Experimental: All primary assays were performed at RT. with purified recombinantly expressed human SSAO. Enzyme was prepared essentially as described in Öhman et al. (Protein Expression and Purification 46 (2006) 321-331). In addition, secondary- and selectivity assays were performed using SSAO prepared from various tissues or purified rat recombinant SSAO. The enzyme activity was assayed with benzylamine as substrate by measuring either benzaldehyde production, using ^14C-labeled substrate, or by utilizing the production of hydrogen peroxide in a horseradish peroxidase (HRP) coupled reaction. Briefly, test compounds were dissolved in dimethyl sulfoxide (DMSO) to a concentration of 10 mM. Dose-response measurements were assayed by either creating 1:10 serial dilutions in DMSO to produce a 7 point curve or by making 1:3 serial dilutions in DMSO to produce 11 point curves. The top concentrations were adjusted depending on the potency of the compounds and subsequent dilution in reaction buffer yielded a final DMSO concentration ≤2%.
In a horseradish peroxidase (HRP) coupled reaction, hydrogen peroxide oxidation of 10-acetyl-3,7-dihydroxyphenoxazine produced resorufin, which is a highly fluorescent compound (Zhout and Panchuk-Voloshina. Analytical Biochemistry 253 (1997) 169-174; Amplex® Red Hydrogen Peroxide/peroxidase Assay kit, Invitrogen A22188). Enzyme and compounds in 50 mM sodium phosphate, pH 7.4 were set to pre-incubate in flat-bottomed microtiter plates for approximately 15 min before initiating the reaction by addition of a mixture of HRP, benzylamine and Amplex reagent. Benzylamine concentration was fixed at a concentration corresponding to the Michaelis constant, determined using standard procedures. Fluorescence intensity was then measured at several time points during 1-2 h, exciting at 544 nm and reading the emission at 590 nm. For the human SSAO assay final concentrations of the reagents in the assay wells were: SSAO enzyme 1 ug/mL, benzylamine 100 uM, Amplex reagent 20 uM, HRP 0.1 U/mL and varying concentrations of test compound. The inhibition was measured as % decrease of the signal compared to a control without inhibitor (only diluted DMSO). The background signal from a sample containing no SSAO enzyme was subtracted from all data points. Data was fitted to a four parameter logistic model and IC50 values were calculated using the GraphPad Prism 4 or XLfit 4 programs.
SSAO activity was assayed using […] benzylamine and analysed by measuring radioactive benzaldehyde. In a white 96-well optiplate (Packard), 20 uL of diluted test compound was pre-incubated at RT with 20 uL SSAO enzyme for approximately 15 min with continuous agitation. All dilutions were made with PBS. The reaction was initiated by adding 20 uL of the benzylamine substrate solution containing Benzylamine hydrochloride (CFA589, GE Healthcare). The plate was incubated for 1 h as above after which the reaction was stopped by acidification (10 uL 1M aq HCl). Then 90 uL Micro Scint-E solution (Perkin-Elmer) was added to each well and the plate was continuously mixed for 15 min. Phase separation occurred instantly and activity was read in a Topcount scintillation counter (Perkin-Elmer). In the final reaction well, the human recombinant SSAO concentration was 10 ug/mL. In order to optimize sensitivity, the substrate concentration was decreased as compared to the HRP coupled assay in order to get a higher fraction of radioactive product. In the human SSAO assay, benzylamine concentration was 40 uM (0.2uCi/mL). Data was analysed as above.

pIC50 | Compound
6.70 to 7.30 | Fc1ccc(-n2c(-c3ccc(N4CCOCC4)nc3)nc3ccncc32)nc1 [Compound 1, 4-{5-[3-(5-Fluoropyridin-2-yl)-3H-imidazo[4,5-c]pyridin-2-yl]pyridin-2-yl}morpholine]
> 7.30 | Cc1cc(N2CCOCC2)ncc1-c1nc2ccncc2n1-c1ccc(F)cc1F [Compound 2, 4-{5-[3-(2,4-Difluorophenyl)-3H-imidazo[4,5-c]pyridin-2-yl]-4-methylpyridin-2-yl}morpholine]
6.70 to 7.30 | Fc1ccc(-n2c(-c3cnc(NC4CCOCC4)nc3)nc3ccncc32)c(F)c1 [Compound 3, 5-[3-(2,4-Difluorophenyl)-3H-imidazo[4,5-c]pyridin-2-yl]-N-(oxan-4-yl)pyrimidin-2-amine]
6.70 to 7.30 | CCN(CC)c1ncc(-c2nc3ccncc3n2-c2ccc(C)nc2)cn1 [Compound 4, N,N-Diethyl-5-[3-(6-methylpyridin-3-yl)-3H-imidazo[4,5-c]pyridin-2-yl]pyrimidin-2-amine]
> 7.30 | CCN(CC)c1ncc(-c2nc3ccncc3n2-c2ccc(F)cc2)cn1 [Compound 5, N,N-Diethyl-5-[3-(4-fluorophenyl)-3H-imidazo[4,5-c]pyridin-2-yl]pyrimidin-2-amine]
> 7.30 | CCN(CC)c1ncc(-c2nc3ccncc3n2-c2ccc(C)cc2)cn1 [Compound 6, N,N-Diethyl-5-[3-(4-methylphenyl)-3H-imidazo[4,5-c]pyridin-2-yl]pyrimidin-2-amine]
6.70 to 7.30 | CCN(CC)c1ncc(-c2nc3ccncc3n2-c2ccc(C)cn2)cn1 [Compound 7, N,N-Diethyl-5-[3-(5-methylpyridin-2-yl)-3H-imidazo[4,5-c]pyridin-2-yl]pyrimidin-2-amine]
> 7.30 | Cc1ccc(-n2c(-c3cnc(N4CCOCC4)cc3C)nc3ccncc32)c(F)c1 [Compound 8, 4-{5-[3-(2-Fluoro-4-methylphenyl)-3H-imidazo[4,5-c]pyridin-2-yl]-4-methylpyridin-2-yl}morpholine]
> 7.30 | Cc1cc(N2CCOCC2)ncc1-c1nc2ccncc2n1-c1ccc(Cl)cc1 [Compound 9, 4-{5-[3-(4-Chlorophenyl)-3H-imidazo[4,5-c]pyridin-2-yl]-4-methylpyridin-2-yl}morpholine]
> 7.30 | Cc1ccc(-n2c(-c3ccc(N4CCC(F)(F)CC4)nc3)nc3ccncc32)cc1 [Compound 11, 2-(4,4-Difluoropiperidin-1-yl)-5-[3-(4-methylphenyl)-3H-imidazo[4,5-c]pyridin-2-yl]pyridine]
6.70 to 7.30 | Cc1ccc(-n2c(-c3cnc(N4CCOCC4)cc3C)nc3ccncc32)nc1 [Compound 13, 4-{4-Methyl-5-[3-(5-methylpyridin-2-yl)-3H-imidazo[4,5-c]pyridin-2-yl]pyridin-2-yl}morpholine]
5.92 to 6.70 | Cc1cc(N2CCOCC2)ncc1-c1nc2ccncc2n1-c1ccc(F)cn1 [Compound 14, 4-{5-[3-(5-Fluoropyridin-2-yl)-3H-imidazo[4,5-c]pyridin-2-yl]-4-methylpyridin-2-yl}morpholine; tris(trifluoroacetic acid)]
> 7.30 | Fc1ccc(-n2c(-c3ccc(N4CCSCC4)nc3)nc3ccncc32)cc1 [Compound 16, 4-{5-[3-(4-Fluorophenyl)-3H-imidazo[4,5-c]pyridin-2-yl]pyridin-2-yl}thiomorpholine]
> 7.30 | Fc1ccc(-n2c(-c3ccc(NCCN4CCOCC4)nc3)nc3ccncc32)cc1 [Compound 20, 5-[3-(4-Fluorophenyl)-3H-imidazo[4,5-c]pyridin-2-yl]-N-[2-(morpholin-4-yl)ethyl]pyridin-2-amine]
> 7.30 | Fc1ccc(-n2c(-c3ccc(NC4CC4)nc3)nc3ccncc32)cc1 [Compound 22, N-Cyclopropyl-5-[3-(4-fluorophenyl)-3H-imidazo[4,5-c]pyridin-2-yl]pyridin-2-amine]
5.92 to 6.70 | Cc1ccc(-n2c(-c3ccc(NC4CC4)nc3)nc3ccncc32)cn1 [Compound 23, N-Cyclopropyl-5-[3-(6-methylpyridin-3-yl)-3H-imidazo[4,5-c]pyridin-2-yl]pyridin-2-amine]
